This note sets out measurements from patent US20190085024A1, “Alpha-Ketoamide Inhibitors Of Cysteine Proteases” (Phelix Therapeutics, priority 2017, published 2019).

One test deals with Cathepsin L (Homo sapiens, UniProt P07711). The test is described as follows: Cathepsin L enzyme assay. The conditions noted are these: Ki by Morrison equation; pH 5.5, substrate Z-Phe-Arg-Amc; read-out: Cat L. It is filed as biochemical. The source says:
Two wells contained DMSO only for controls.
Velocity was converted to μM/sec.

The target of the next test is Calpain. The test is described as follows: Calpain enzyme assay. The format is biochemical. The conditions noted are these: Ki by Morrison equation; pH 7.5, 5 mM CaCl2.

Structures are written as SMILES.

Chain of Cathepsin L (P07711 114-333, species assumed): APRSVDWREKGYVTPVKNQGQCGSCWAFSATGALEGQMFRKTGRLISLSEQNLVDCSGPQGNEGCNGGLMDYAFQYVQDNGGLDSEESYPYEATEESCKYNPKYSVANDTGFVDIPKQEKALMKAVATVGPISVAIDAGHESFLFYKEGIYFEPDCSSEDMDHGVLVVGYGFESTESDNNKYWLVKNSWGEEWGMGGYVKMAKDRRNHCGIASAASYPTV

Regarding `CCC(C)C(NC(=O)C(CC(C)C)NC(=O)OCc1ccccc1)C(=O)C(=O)N1CC(C(=O)NCc2cncnc2)C1` (stereo not shown) [PHELIX362, benzyl (4-methyl-1-((4-methyl-1,2-dioxo-1-(3-((pyrimidin-5-ylmethyl)carbamoyl)azetidin-1-yl)hexan-3-yl)amino)-1-oxopentan-2-yl)carbamate], the Ki worked out at 157 nM at Cathepsin L and 630 nM on Calpain.

In the case of `CCC(C)C(C(=O)C(=O)NCC(=O)NC(Cc1ccc2ccccc2c1)C(N)=O)N(C)C(=O)C(CC(C)C)NC(=O)OCc1ccccc1` (stereo not shown) [PHELIX305, benzyl (1-((1-((2-((1-amino-3-(naphthalen-2-yl)-1-oxopropan-2-yl)amino)-2-oxoethyl)amino)-4-methyl-1,2-dioxohexan-3-yl)(methyl)amino)-4-methyl-1-oxopentan-2-yl)carbamate], the Ki at Cathepsin L was 912 nM; at Calpain, 9450 nM.

With `CC[C@H](C)C(NC(=O)[C@H](CC(C)C)NC(=O)OCc1ccccc1)C(=O)C(=O)N1CC(C(=O)O)C1` (stereo partly shown) [PHELIX367, 1-(3-(2-(((benzyloxy)carbonyl)amino)-4-methylpentanamido)-4-methyl-2-oxohexanoyl)azetidine-3-carboxylic acid], the Ki on Cathepsin L is 906 nM; on Calpain it was more than 1000 nM.

As for `CCC(C)C(NC(=O)C(CC(C)C)NC(=O)Cc1ccncc1)C(=O)C(=O)NCC(=O)N(C)C(Cc1ccccc1)C(N)=O` (stereo not shown) [PHELIX353, N-(2-((1-amino-1-oxo-3-phenylpropan-2-yl)(methyl)amino)-2-oxoethyl)-4-methyl-3-(4-methyl-2-(2-(pyridin-4-yl)acetamido)pentanamido)-2-oxohexanamide], the values for the Ki at Cathepsin L and on Calpain were 0.55 nM and 3.03 nM, respectively.

In the case of `CCC(C)C(NC(=O)C(CC(C)C)NC(=O)OCc1ccccc1)C(=O)C(=O)NC(CCCNC(N)=O)C(N)=O` (stereo not shown) [PHELIX341, benzyl (1-((1-((1-amino-1-oxo-5-ureidopentan-2-yl)amino)-4-methyl-1,2-dioxohexan-3-yl)amino)-4-methyl-1-oxopentan-2-yl)carbamate], the figures for the Ki at Cathepsin L and on Calpain were 27.9 nM and 23.4 nM, respectively.

On to `CCC(C)C(NC(=O)C(CC(C)C)NC(=O)OCc1ccccc1)C(=O)C(=O)NCC(=O)NC(Cc1cc2ccccc2[nH]1)C(N)=O` (stereo not shown) [PHELIX327, benzyl (1-((1-((2-((1-amino-3-(1H-indol-2-yl)-1-oxopropan-2-yl)amino)-2-oxoethyl)amino)-4-methyl-1,2-dioxohexan-3-yl)amino)-4-methyl-1-oxopentan-2-yl)carbamate], for which the Ki at Cathepsin L turned out to be 9.33 nM; on Calpain, 9.98 nM.

In the case of `CCC(C)C(NC(=O)C(CC(C)C)NC(=O)OCc1ccccc1)C(=O)C(=O)NC(C)C(=O)NC(Cc1ccc2ccccc2c1)C(N)=O` (stereo not shown) [PHELIX295, benzyl (1-((1-((1-((1-amino-3-(naphthalen-2-yl)-1-oxopropan-2-yl)amino)-1-oxopropan-2-yl)amino)-4-methyl-1,2-dioxohexan-3-yl)amino)-4-methyl-1-oxopentan-2-yl)carbamate], the Ki on Cathepsin L was 0.84 nM; on Calpain it was 2.05 nM.

In the case of `CCC(C)C(NC(=O)C(CC(C)C)NC(=O)CN1CCN(C)CC1)C(=O)C(=O)NCC(=O)NC(Cc1ccc2ccccc2c1)C(N)=O` (stereo not shown) [PHELIX313, N-(2-((1-amino-3-(naphthalen-2-yl)-1-oxopropan-2-yl)amino)-2-oxoethyl)-4-methyl-3-(4-methyl-2-(2-(4-methylpiperazin-1-yl)acetamido)pentanamido)-2-oxohexanamide], the Ki at Cathepsin L was less than 0.1 nM; on Calpain, 9.91 nM.

With `CCC(C)C(NC(=O)C(CC(C)C)NC(=O)OCc1ccccc1)C(=O)C(=O)NC(CCCNC(=N)N)C(=O)NC(Cc1ccc2ccccc2c1)C(N)=O` (stereo not shown) [PHELIX289, benzyl (1-((1-((1-((1-amino-3-(naphthalen-2-yl)-1-oxopropan-2-yl)amino)-5-guanidino-1-oxopentan-2-yl)amino)-4-methyl-1,2-dioxohexan-3-yl)amino)-4-methyl-1-oxopentan-2-yl)carbamate], the Ki on Cathepsin L was less than 0.2 nM; on Calpain it was 20.5 nM.

`CCC(C)C(NC(=O)C(NC(=O)Cc1ccccc1)C(C)(C)C)C(=O)C(=O)NCC(=O)NC(Cc1ccc2ccccc2c1)C(N)=O` (stereo not shown) [PHELIX323, N-(2-((1-amino-3-(naphthalen-2-yl)-1-oxopropan-2-yl)amino)-2-oxoethyl)-3-(3,3-dimethyl-2-(2-phenylacetamido)butanamido)-4-methyl-2-oxohexanamide]: the Ki on Cathepsin L was 273 nM; on Calpain it was 2370 ± 1050 nM.

With `CCC(C)C(NC(=O)C(CC(C)C)NC(=O)Cc1cccnc1)C(=O)C(=O)NCC(=O)N(C)C(Cc1ccccc1)C(N)=O` (stereo not shown) [PHELIX351, N-(2-((1-amino-1-oxo-3-phenylpropan-2-yl)(methyl)amino)-2-oxoethyl)-4-methyl-3-(4-methyl-2-(2-(pyridin-3-yl)acetamido)pentanamido)-2-oxohexanamide], the Ki was found to be 0.45 nM on Cathepsin L and 0.3 nM at Calpain.

`CCC(C)C(NC(=O)C(CC(C)C)NC(=O)OCc1ccccc1)C(=O)C(=O)NC(CC#N)C(=O)NC(Cc1ccc2ccccc2c1)C(N)=O` (stereo not shown) [PHELIX336, benzyl (1-((1-((1-((1-amino-3-(naphthalen-2-yl)-1-oxopropan-2-yl)amino)-3-cyano-1-oxopropan-2-yl)amino)-4-methyl-1,2-dioxohexan-3-yl)amino)-4-methyl-1-oxopentan-2-yl)carbamate]: the Ki stood at 4.04 nM at Cathepsin L and 33.6 nM on Calpain.

`CCC(C)C(NC(=O)C(CC(C)C)NC(=O)OCc1ccccc1)C(=O)C(=O)NCC(=O)NC(Cc1cccc(F)c1)C(N)=O` (stereo not shown) [PHELIX348, benzyl (1-((1-((2-((1-amino-3-(3-fluorophenyl)-1-oxopropan-2-yl)amino)-2-oxoethyl)amino)-4-methyl-1,2-dioxohexan-3-yl)amino)-4-methyl-1-oxopentan-2-yl)carbamate]: the Ki at Cathepsin L was found to be 2.76 nM; at Calpain, 1.68 nM.

In the case of `CCC(C)C(NC(=O)C(CC(C)C)NC(=O)OCc1ccccc1)C(=O)C(=O)N1CC(C(=O)NCc2ccc(C(=N)N)cc2)C1` (stereo not shown) [PHELIX366, benzyl (1-((1-(3-((4-carbamimidoylbenzyl)carbamoyl)azetidin-1-yl)-4-methyl-1,2-dioxohexan-3-yl)amino)-4-methyl-1-oxopentan-2-yl)carbamate], the Ki is 137 nM at Cathepsin L and 442 nM on Calpain.

For the compound `CCC(C)C(NC(=O)C(CC(C)C)NC(=O)OCc1ccccc1)C(=O)C(=O)N1CC(C(=O)NCc2n[nH]c3c2CCC3)C1` (stereo not shown) [PHELIX364, benzyl (4-methyl-1-((4-methyl-1,2-dioxo-1-(3-(((1,4,5,6-tetrahydrocyclopenta[c]pyrazol-3-yl)methyl)carbamoyl)azetidin-1-yl)hexan-3-yl)amino)-1-oxopentan-2-yl)carbamate], the Ki at Cathepsin L amounted to 117 nM; on Calpain it was 32.1 nM.

On to `CCC(C)C(C(=O)C(=O)NCC(=O)NC(Cc1ccc2ccccc2c1)C(N)=O)N(C)C(=O)C(CC(C)C)NC(=O)OCc1ccccc1` (stereo not shown) [PHELIX306, benzyl (1-((1-((2-((1-amino-3-(naphthalen-2-yl)-1-oxopropan-2-yl)amino)-2-oxoethyl)amino)-4-methyl-1,2-dioxohexan-3-yl)(methyl)amino)-4-methyl-1-oxopentan-2-yl)carbamate], for which the Ki on Cathepsin L came out at 77.6 nM; on Calpain, 446 nM.

As to `CCC(C)C(NC(=O)OCc1ccccc1)C(=O)C(=O)NCC(=O)NC(Cc1ccc2ccccc2c1)C(N)=O` (stereo not shown) [PHELIX325, benzyl (1-((2-((1-amino-3-(naphthalen-2-yl)-1-oxopropan-2-yl)amino)-2-oxoethyl)amino)-4-methyl-1,2-dioxohexan-3-yl)carbamate], the Ki at Cathepsin L amounted to 239 nM; on Calpain it was 1210 nM.

On to `CCC(C)C(NC(=O)C(CC(C)C)NC(=O)Cc1cncnc1)C(=O)C(=O)NCC(=O)NC(Cc1ccc2ccccc2c1)C(N)=O` (stereo not shown) [PHELIX365, N-(2-((1-amino-3-(naphthalen-2-yl)-1-oxopropan-2-yl)amino)-2-oxoethyl)-4-methyl-3-(4-methyl-2-(2-(pyrimidin-5-yl)acetamido)pentanamido)-2-oxohexanamide], for which the results for the Ki on Cathepsin L and at Calpain were 17.9 nM and 6.21 nM, respectively.

On to `CCC(C)C(NC(=O)C(CC(C)C)NC(=O)OCc1ccccc1)C(=O)C(=O)NC(Cc1cccc(F)c1)C(N)=O` (stereo not shown) [PHELIX359, benzyl (1-((1-((1-amino-3-(3-fluorophenyl)-1-oxopropan-2-yl)amino)-4-methyl-1,2-dioxohexan-3-yl)amino)-4-methyl-1-oxopentan-2-yl)carbamate], for which the Ki on Cathepsin L was found to be 0.73 nM; at Calpain it was 2.03 nM.

For the compound `CCC(C)C(NC(=O)C(CC(C)C)NC(=O)Cc1ccncc1)C(=O)C(=O)NCC(=O)NC(Cc1ccc2ccccc2c1)C(N)=O` (stereo not shown) [PHELIX333, N-(2-((1-amino-3-(naphthalen-2-yl)-1-oxopropan-2-yl)amino)-2-oxoethyl)-4-methyl-3-(4-methyl-2-(2-(pyridin-4-yl)acetamido)pentanamido)-2-oxohexanamide], the Ki came to 0.59 nM on Cathepsin L and 0.98 nM at Calpain.

As to `CCC(C)C(NC(=O)C(CC(C)(C)C)NC(=O)Cc1ccccc1)C(=O)C(=O)NCC(=O)NC(Cc1ccc2ccccc2c1)C(N)=O` (stereo not shown) [PHELIX331, N-(2-((1-amino-3-(naphthalen-2-yl)-1-oxopropan-2-yl)amino)-2-oxoethyl)-3-(4,4-dimethyl-2-(2-phenylacetamido)pentanamido)-4-methyl-2-oxohexanamide], the figures for the Ki at Cathepsin L and on Calpain were 1.67 nM and 9.26 nM, respectively.

`CCC(C)C(NC(=O)C(CC(C)C)NC(=O)OCc1ccccc1)C(=O)C(=O)NC(Cc1ccncc1)C(N)=O` (stereo not shown) [PHELIX342, benzyl (1-((1-((1-amino-1-oxo-3-(pyridin-4-yl)propan-2-yl)amino)-4-methyl-1,2-dioxohexan-3-yl)amino)-4-methyl-1-oxopentan-2-yl)carbamate]: the Ki at Cathepsin L turned out to be 31.3 nM; on Calpain it was 20.2 nM.

For the compound `CCC(C)C(NC(=O)C(CC(C)C)NC(=O)OCc1ccccc1)C(=O)C(=O)NCC(=O)NCc1ccc2ccccc2c1` (stereo not shown) [PHELIX303, benzyl (4-methyl-1-((4-methyl-1-((2-((naphthalen-2-ylmethyl)amino)-2-oxoethyl)amino)-1,2-dioxohexan-3-yl)amino)-1-oxopentan-2-yl)carbamate], the Ki on Cathepsin L was determined as 1.14 nM; at Calpain it was 6.03 nM.
